According to US10793564B2, “Amino acid compounds and methods of use” (Pliant Therapeutics, Inc., priority 2018, dated 2020):

Target: recombinant human integrin αVβ6 (Homo sapiens (Human), UniProt P06756+P18564)
Experiment: Solid phase integrin αVβ6 binding assay
Details: inhibition of recombinant TGFβ1 LAP binding to coated integrin, IC50 presented in four ranges, read-out: αvβ6 Inhibition IC50 (nM) - range
Summary of the method: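 Plates coated with recombinant human αVβ6 (2 μg/mL) and blocked; compounds competed with TGFβ1 LAP (0.67 μg/mL) in Mn2+ (0.5 mM)/BSA/sucrose TBS for 2 h at 25° C. Bound LAP detected by biotin anti-LAP and peroxidase-streptavidin; IC50 by four-parameter logistic fit.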

Chain of recombinant human integrin αVβ6 (P06756 31-992): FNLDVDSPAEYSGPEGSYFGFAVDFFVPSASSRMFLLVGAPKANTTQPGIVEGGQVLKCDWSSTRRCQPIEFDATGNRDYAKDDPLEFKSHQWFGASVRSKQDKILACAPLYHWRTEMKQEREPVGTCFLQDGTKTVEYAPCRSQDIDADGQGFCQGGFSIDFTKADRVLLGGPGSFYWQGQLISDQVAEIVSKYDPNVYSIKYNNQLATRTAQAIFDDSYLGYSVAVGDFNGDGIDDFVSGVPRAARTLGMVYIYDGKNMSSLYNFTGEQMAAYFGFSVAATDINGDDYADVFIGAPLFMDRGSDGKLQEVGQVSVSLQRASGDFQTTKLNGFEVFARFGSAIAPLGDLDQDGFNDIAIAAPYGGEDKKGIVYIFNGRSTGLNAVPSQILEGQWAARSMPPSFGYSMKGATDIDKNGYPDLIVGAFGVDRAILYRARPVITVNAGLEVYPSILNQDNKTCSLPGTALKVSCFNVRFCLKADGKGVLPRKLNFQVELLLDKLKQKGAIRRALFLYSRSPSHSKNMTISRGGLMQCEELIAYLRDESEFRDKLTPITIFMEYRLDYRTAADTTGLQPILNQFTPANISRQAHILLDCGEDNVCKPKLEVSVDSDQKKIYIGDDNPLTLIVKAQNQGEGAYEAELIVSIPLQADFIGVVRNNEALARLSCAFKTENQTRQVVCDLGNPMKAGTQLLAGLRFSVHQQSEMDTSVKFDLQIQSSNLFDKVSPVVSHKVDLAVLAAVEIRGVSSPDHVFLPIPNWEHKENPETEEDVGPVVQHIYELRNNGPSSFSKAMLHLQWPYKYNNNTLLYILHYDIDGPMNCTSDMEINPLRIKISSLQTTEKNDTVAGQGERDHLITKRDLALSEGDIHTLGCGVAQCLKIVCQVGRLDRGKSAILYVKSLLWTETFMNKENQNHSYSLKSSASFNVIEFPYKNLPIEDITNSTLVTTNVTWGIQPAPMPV
Chain of recombinant human integrin αVβ6 (P18564 22-707): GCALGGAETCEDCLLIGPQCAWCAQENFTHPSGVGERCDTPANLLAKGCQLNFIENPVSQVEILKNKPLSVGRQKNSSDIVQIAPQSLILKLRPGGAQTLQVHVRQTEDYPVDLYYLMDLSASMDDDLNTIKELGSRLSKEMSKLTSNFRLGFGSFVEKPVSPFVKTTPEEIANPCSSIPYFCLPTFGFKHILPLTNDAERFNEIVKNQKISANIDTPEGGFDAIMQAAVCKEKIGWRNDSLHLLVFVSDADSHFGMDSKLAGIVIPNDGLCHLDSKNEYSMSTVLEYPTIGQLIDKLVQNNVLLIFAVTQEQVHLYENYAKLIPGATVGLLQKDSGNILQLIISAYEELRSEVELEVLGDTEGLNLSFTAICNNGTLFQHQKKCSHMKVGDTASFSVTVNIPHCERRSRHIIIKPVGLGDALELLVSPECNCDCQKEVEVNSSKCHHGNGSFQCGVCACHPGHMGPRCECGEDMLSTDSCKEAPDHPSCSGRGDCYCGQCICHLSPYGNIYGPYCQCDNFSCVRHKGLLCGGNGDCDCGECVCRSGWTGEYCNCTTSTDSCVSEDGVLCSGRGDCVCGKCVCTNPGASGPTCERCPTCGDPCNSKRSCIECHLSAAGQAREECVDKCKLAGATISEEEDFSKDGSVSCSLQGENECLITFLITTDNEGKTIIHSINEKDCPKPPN

`CO[C@H](C)CN(CCCCc1ccc2c(n1)NCCC2)CC[C@H](Nc1ccnc(-c2ccccc2)n1)C(=O)O` [Compound 73, (S)-4-(((R)-2-methoxypropyl) (4-(5,6,7,8-tetrahydro-1,8-naphthyridin-2-yl)butyl)amino)-2-((2-phenylpyrimidin-4-yl)amino) butanoic Acid] was tested, and the IC50 was less than 50 nM.

`CO[C@H](C)CN(CCCCc1ccc2c(n1)NCCC2)CC[C@H](Nc1ncnc2c1cnn2C)C(=O)O` [Compound 74, (S)-4-(((R)-2-methoxypropyl) (4-(5,6,7,8-tetrahydro-1,8-naphthyridin-2-yl)butyl)amino)-2-((1-methyl-1H-pyrazolo[3,4-d]pyrimidin-4-yl)amino) butanoic Acid] gave an IC50 of less than 50 nM.

`O=C(O)[C@H](CCN(CCO)CCCCc1ccc2c(n1)NCCC2)Nc1ncnc2ccccc12` [Compound 75, (S)-4-((2-hydroxyethyl) (4-(5,6,7,8-tetrahydro-1,8-naphthyridin-2-yl)butyl)amino)-2-(quinazolin-4-ylamino) butanoic Acid] showed an IC50 of less than 50 nM.

With `CO[C@H](C)CN(CCCCc1ccc2c(n1)NCCC2)CC[C@H](Nc1nccnc1C#N)C(=O)O` [Compound 76, (S)-2-((3-cyanopyrazin-2-yl)amino)-4-(((R)-2-methoxypropyl) (4-(5,6,7,8-tetrahydro-1,8-naphthyridin-2-yl)butyl)amino) butanoic Acid] the IC50 was less than 50 nM.

`CO[C@H](C)CN(CCCCc1ccc2c(n1)NCCC2)CC[C@H](Nc1cc(-n2cccn2)ncn1)C(=O)O` [Compound 77, (S)-2-((6-(1H-pyrazol-1-yl)pyrimidin-4-yl)amino)-4-(((R)-2-methoxypropyl) (4-(5,6,7,8-tetrahydro-1,8-naphthyridin-2-yl)butyl)amino) butanoic Acid] gave an IC50 of less than 50 nM.

With `CO[C@H](C)CN(CCCCc1ccc2c(n1)NCCC2)CC[C@H](Nc1ncc(F)cn1)C(=O)O` [Compound 78, (S)-2-((5-fluoropyrimidin-2-yl)amino)-4-(((R)-2-methoxypropyl) (4-(5,6,7,8-tetrahydro-1,8-naphthyridin-2-yl)butyl)amino) butanoic Acid] the IC50 was less than 50 nM.

For `CO[C@H](C)CN(CCCCc1ccc2c(n1)NCCC2)CC[C@H](Nc1ncnc2cn[nH]c12)C(=O)O` [Compound 79, (S)-2-((1H-pyrazolo[4,3-d]pyrimidin-7-yl)amino)-4-(((R)-2-methoxypropyl) (4-(5,6,7,8-tetrahydro-1,8-naphthyridin-2-yl)butyl)amino) butanoic Acid], the IC50 was less than 50 nM.

In the case of `CO[C@H](C)CN(CCCCc1ccc2c(n1)NCCC2)CC[C@H](Nc1cc(-c2ccccc2)ncn1)C(=O)O` [Compound 80, (S)-4-(((R)-2-methoxypropyl) (4-(5,6,7,8-tetrahydro-1,8-naphthyridin-2-yl)butyl)amino)-2-((6-phenylpyrimidin-4-yl)amino) butanoic Acid], the IC50 is reported as less than 50 nM.

`Cn1ncc2c(N[C@@H](CCN(CCCCc3ccc4c(n3)NCCC4)CCOc3ccccc3)C(=O)O)ncnc21` [Compound 82, (S)-2-((1-methyl-1H-pyrazolo[3,4-d]pyrimidin-4-yl)amino)-4-((2-phenoxyethyl) (4-(5,6,7,8-tetrahydro-1,8-naphthyridin-2-yl)butyl)amino) butanoic Acid] showed an IC50 of less than 50 nM.

For `O=C(O)[C@H](CCN(CCCCc1ccc2c(n1)NCCC2)CCOc1ccccc1)Nc1ncc(Br)cn1` [Compound 83, (S)-2-((5-bromopyrimidin-2-yl)amino)-4-((2-phenoxyethyl) (4-(5,6,7,8-tetrahydro-1,8-naphthyridin-2-yl)butyl)amino) butanoic Acid], the IC50 was less than 50 nM.

`COC[C@@H](F)CN(CCCCc1ccc2c(n1)NCCC2)CC[C@H](Nc1ncc(C(F)(F)F)cn1)C(=O)O` [Compound 85, (S)-4-(((S)-2-fluoro-3-methoxypropyl) (4-(5,6,7,8-tetrahydro-1,8-naphthyridin-2-yl)butyl)amino)-2-((5-(trifluoromethyl)pyrimidin-2-yl)amino) butanoic Acid] showed an IC50 of 250 to 1000 nM.

With `COC[C@@H](F)CN(CCCCc1ccc2c(n1)NCCC2)CC[C@H](Nc1ncc(Br)cn1)C(=O)O` [Compound 86, (S)-2-((5-bromopyrimidin-2-yl)amino)-4-(((S)-2-fluoro-3-methoxypropyl) (4-(5,6,7,8-tetrahydro-1,8-naphthyridin-2-yl)butyl)amino) butanoic Acid] the IC50 was 50 to 250 nM.

`COC[C@@H](F)CN(CCCCc1ccc2c(n1)NCCC2)CC[C@H](Nc1ccnc(C(F)(F)F)n1)C(=O)O` [Compound 87, (S)-4-(((S)-2-fluoro-3-methoxypropyl) (4-(5,6,7,8-tetrahydro-1,8-naphthyridin-2-yl)butyl)amino)-2-((2-(trifluoromethyl)pyrimidin-4-yl)amino) butanoic Acid] was tested, and the IC50 was 250 to 1000 nM.

With `Cn1ncc2c(N[C@@H](CCN(CCCCc3ccc4c(n3)NCCC4)CC(F)F)C(=O)O)ncnc21` [Compound 88, (S)-4-((2,2-difluoroethyl) (4-(5,6,7,8-tetrahydro-1,8-naphthyridin-2-yl)butyl)amino)-2-((1-methyl-1H-pyrazolo[3,4-d]pyrimidin-4-yl)amino) butanoic Acid] the IC50 was greater than 1000 nM.

Compound `O=C(O)[C@H](CCN(CCCCc1ccc2c(n1)NCCC2)CCOc1ccccc1)Nc1ncc(C(F)(F)F)cn1` [Compound 89, (S)-4-((2-phenoxyethyl) (4-(5,6,7,8-tetrahydro-1,8-naphthyridin-2-yl)butyl)amino)-2-((5-(trifluoromethyl)pyrimidin-2-yl)amino) butanoic Acid] has an IC50 of less than 50 nM.

Compound `O=C(O)[C@H](CCN(CCCCc1ccc2c(n1)NCCC2)CCOc1ccccc1)Nc1ncnc2[nH]ncc12` [Compound 90, (S)-2-((1H-pyrazolo[3,4-d]pyrimidin-4-yl)amino)-4-((2-phenoxyethyl) (4-(5,6,7,8-tetrahydro-1,8-naphthyridin-2-yl)butyl)amino) butanoic Acid] has an IC50 of less than 50 nM.

`O=C(O)[C@H](CCN(CCCCc1ccc2c(n1)NCCC2)CCOc1ccccc1)Nc1cc(-n2cccn2)ncn1` [Compound 91, (S)-2-((6-(1H-pyrazol-1-yl)pyrimidin-4-yl)amino)-4-((2-phenoxyethyl) (4-(5,6,7,8-tetrahydro-1,8-naphthyridin-2-yl)butyl)amino) butanoic Acid] showed an IC50 of less than 50 nM.

`O=C(O)[C@H](CCN(CCCCc1ccc2c(n1)NCCC2)CCOc1ccccc1)Nc1ccnc(C(F)(F)F)n1` [Compound 92, (S)-4-((2-phenoxyethyl) (4-(5,6,7,8-tetrahydro-1,8-naphthyridin-2-yl)butyl)amino)-2-((2-(trifluoromethyl)pyrimidin-4-yl)amino) butanoic Acid] was tested, and the IC50 was less than 50 nM.

Work on `O=C(O)[C@H](CCN(CCCCc1ccc2c(n1)NCCC2)CCOc1ccccc1)Nc1cc(-c2ccccc2)ncn1` [Compound 93, (S)-4-((2-phenoxyethyl) (4-(5,6,7,8-tetrahydro-1,8-naphthyridin-2-yl)butyl)amino)-2-((6-phenylpyrimidin-4-yl)amino) butanoic Acid] yielded an IC50 of less than 50 nM.

In the case of `O=C(O)[C@H](CCN(CCCCc1ccc2c(n1)NCCC2)CCOc1ccccc1)Nc1nc(-c2cccnc2)nc2ccccc12` [Compound 94, (S)-4-((2-phenoxyethyl) (4-(5,6,7,8-tetrahydro-1,8-naphthyridin-2-yl)butyl)amino)-2-((2-(pyridin-3-yl)quinazolin-4-yl)amino) butanoic Acid], the IC50 is reported as less than 50 nM.

`O=C(O)[C@H](CCN(CCCCc1ccc2c(n1)NCCC2)CC(F)F)Nc1ncc(C(F)(F)F)cn1` [Compound 95, (S)-4-((2,2-difluoroethyl) (4-(5,6,7,8-tetrahydro-1,8-naphthyridin-2-yl)butyl)amino)-2-((5-(trifluoromethyl)pyrimidin-2-yl)amino) butanoic Acid] showed an IC50 greater than 1000 nM.

`O=C(O)[C@H](CCN(CCCCc1ccc2c(n1)NCCC2)CC(F)F)Nc1ncc(Br)cn1` [Compound 96, (S)-2-((5-bromopyrimidin-2-yl)amino)-4-((2,2-difluoroethyl) (4-(5,6,7,8-tetrahydro-1,8-naphthyridin-2-yl)butyl)amino) butanoic Acid] showed an IC50 greater than 1000 nM.

`O=C(O)[C@H](CCN(CCCCc1ccc2c(n1)NCCC2)CC(F)F)Nc1ccnc(C(F)(F)F)n1` [Compound 97, (S)-4-((2,2-difluoroethyl) (4-(5,6,7,8-tetrahydro-1,8-naphthyridin-2-yl)butyl)amino)-2-((2-(trifluoromethyl)pyrimidin-4-yl)amino) butanoic Acid] showed an IC50 greater than 1000 nM.

In the case of `O=C(O)[C@H](CCN(CCCCc1ccc2c(n1)NCCC2)CC(F)F)Nc1cc(-n2cccn2)ncn1` [Compound 98, (S)-2-((6-(1H-pyrazol-1-yl)pyrimidin-4-yl)amino)-4-((2,2-difluoroethyl) (4-(5,6,7,8-tetrahydro-1,8-naphthyridin-2-yl)butyl)amino) butanoic Acid], the IC50 is reported as greater than 1000 nM.

`O=C(O)[C@H](CCN(CCCCc1ccc2c(n1)NCCC2)CC(F)F)Nc1nc(-c2cccnc2)nc2ccccc12` [Compound 99, (S)-4-((2,2-difluoroethyl) (4-(5,6,7,8-tetrahydro-1,8-naphthyridin-2-yl)butyl)amino)-2-((2-(pyridin-3-yl)quinazolin-4-yl)amino) butanoic Acid] was tested, and the IC50 was 250 to 1000 nM.

Compound `CO[C@H](C)CN(CCCCc1ccc2c(n1)NCCC2)CC[C@H](Nc1nc(-c2cccnc2)nc2ccccc12)C(=O)O` [Compound 100, (S)-4-(((R)-2-methoxypropyl) (4-(5,6,7,8-tetrahydro-1,8-naphthyridin-2-yl)butyl)amino)-2-((2-(pyridin-3-yl)quinazolin-4-yl)amino) butanoic Acid] has an IC50 of less than 50 nM.

For `CS(=O)(=O)CCN(CCCCc1ccc2c(n1)NCCC2)CC[C@H](Nc1ncc(C(F)(F)F)cn1)C(=O)O` [Compound 102, (S)-4-((2-(methylsulfonyl)ethyl) (4-(5,6,7,8-tetrahydro-1,8-naphthyridin-2-yl)butyl)amino)-2-((5-(trifluoromethyl)pyrimidin-2-yl)amino) butanoic Acid], the IC50 was greater than 1000 nM.
